Results taken from article PMC10892719 (Pharmaceutics, 2024).

What was measured:
SH-SY5Y cells [1] = assay: Neuroprotection against iron/ascorbate-induced toxicity, MTT; type: cell-based, human; details: ferrous sulfate 5 mM and L-ascorbic acid 2.5 mM, 24 h, optimized concentration of each compound
Protocol: (§1) Cell viability, following treatment with the compounds, was determined using the colorimetric MTT (3-(4,5-dimethylthiazol-2-yl)-2,5-diphenyltetrazolium bromide) assay. The tested compounds (5a1-3, 5b1-3, 5c1-3) were dissolved in DMSO to produce stock solutions of 25 mM and stored at −20 °C. A concentration screening was performed for 0.5 µM to 20 µM final concentrations to choose the highest nontoxic concentration. SH-SY5Y human neuroblastoma cell line (ATCC-CRL-2266) was cultured in Dulbecco’s modified Eagle’s medium (DMEM) (Gibco-Invitrogen, Life Technologies Ltd., Waltham, MA, USA) with heat-inactivated fetal calf serum (10%), penicillin (50 U/mL) and streptomycin (50 µg/mL) at 37 °C with 5% CO2. Cells were plated at 0.15 × 10^6 cells/mL one day prior to the start of the experiment. The cells were then incubated with the appropriate concentration of the compounds for 24 h. After the incubation period, the cells were washed once with PBS and incubated with 200 µL MTT (0.5 mg/mL) for 2 h at 37 °C with 5% CO2. During this period, cellular dehydrogenase successfully metabolized MTT into formazan, which was then solubilized using 200 µL of 0.04 M HCl/isopropanol. Absorbance was measured at 570 nm.
To test whether the compounds have a protective effect against toxicity induced by Aβ1-42 or iron/ascorbate, the cells were pre-incubated for 1 h with each compound, followed by the addition of Aβ1-42 or iron/ascorbate and incubation for an additional 24 h. Aβ1-42 (Bachem, Torrance, CA, USA) was prepared in sterile water to produce a stock solution of 443 µM and added to the cells at a final concentration of 1 µM. […] All data are expressed as mean ± SEM of at least three independent experiments performed in duplicate. […]
Figure 5 Neuroprotective effect of RIV-IND compounds against cellular toxicity induced by iron/ascorbate (Fe/Asc) measured by MTT reduction ability on SH-SY5Y cells pretreated with iron/ascorbate for one hour, followed by a 24 h incubation with the optimized concentration of each compound. […]

SH-SY5Y cells [2] = assay: Neuroprotection against Aβ1-42-induced toxicity, MTT; type: cell-based, human; details: Aβ1-42 1 µM, 24 h, optimized concentration of each compound
Protocol: as §1
To test whether the compounds have a protective effect against toxicity induced by Aβ1-42 or iron/ascorbate, the cells were pre-incubated for 1 h with each compound, followed by the addition of Aβ1-42 or iron/ascorbate and incubation for an additional 24 h. Aβ1-42 (Bachem, Torrance, CA, USA) was prepared in sterile water to produce a stock solution of 443 µM and added to the cells at a final concentration of 1 µM. Ferrous sulfate and L-ascorbic acid (Sigma Chemical Co, St. Louis, MO, USA), prepared in sterile water, were added to the medium together at a final concentration of 5 mM and 2.5 mM, respectively. For this assay, the optimal concentration of each compound was used to prevent cellular demise induced by Aβ1-42 or iron/ascorbate. Compound 5a1 was added to the medium at a 1 µM final concentration; compounds 5a2, 5a3, 5b1, 5b2 and 5c2 were added to the medium at a 2.5 µM final concentration; compounds 5c1 and 5c3 were added to the medium at a 5 µM final concentration; and compound 5b3 was added to the medium at a 10 µM final concentration. […] Controls were employed for each plate using untreated cells and Aβ1-42 or iron/ascorbate only. Cell reduction ability was normalized to the untreated condition. All data are expressed as mean ± SEM of at least three independent experiments performed in duplicate. Statistical analyses were performed for normality assessment using Shapiro–Wilk’s test followed by the Kruskal–Wallis test considering that normality was not verified. Post hoc analysis was performed using uncorrected Dunn’s test. A p value < 0.05 was considered statistically significant.
Figure 4 Neuroprotective effect of RIV-IND compounds against cellular toxicity induced by Aβ1-42 measured by MTT reduction ability on SH-SY5Y cells pretreated with […] for one hour, followed by a 24 h incubation with the optimized concentration of each compound. Results are expressed relatively to untreated cells, with the mean ± standard error of the mean (SEM) derived from three to seven independent experiments. * p < 0.05; ** p < 0.01; *** p < 0.001; **** p < 0.0001 compared to untreated cells. # p < 0.05 compared to Aβ1-42-treated cells. (The dot line indicates the decrease in cellular viability induced by Aβ).

Question: Which results are given for `CCN(C)C(=O)Oc1cccc(NC(=O)c2cc3cccc(O)c3[nH]2)c1` [Compound 5a3, 3-(7-Hydroxy-1H-indole-2-carboxamido)phenyl ethyl(methyl)carbamate]?
Answer: neuroprotective effect against toxicity induced by iron/ascorbate (SH-SY5Y cells [1]): also present a neuroprotective effect; neuroprotective effect against toxicity induced by Aβ1-42 (SH-SY5Y cells [2]): also present neuroprotection

Question: How did the “neuroprotective effect against toxicity induced by iron/ascorbate” value (SH-SY5Y cells [1]) turn out when `CCN(C)C(=O)Oc1cccc(CNC(=O)c2cc3ccccc3[nH]2)c1` [Compound 5b1, 3-((1H-indole-2-carboxamido)methyl)phenyl ethylmethylcarbamate] was run?
Answer: also present a neuroprotective effect

Question: What about the “neuroprotective effect against toxicity induced by Aβ1-42” value (SH-SY5Y cells [2]) of the same compound?
Answer: able to rescue Aβ1-42-induced toxicity to levels that were not significantly different from untreated cells
